Results reported in paper PMC5920526 (ACS catalysis, 2017).

Assays:
SpNanC [1] = experiment: Substrate specificity of SpNanC with pNP-tagged α2–3-linked sialosides; type: biochemical, Streptococcus pneumoniae; details: sialoside as substrate of SpNanC
SpNanC [2] = experiment: Kinetics studies of SpNanC; type: biochemical, Streptococcus pneumoniae; details: substance as substrate of SpNanC
human NEU1 = details: cited from earlier work
PmST1 = PmST1 (Pasteurella multocida, UniProt Q15KI8); type: biochemical; details: 0.1 mM inhibitor
CpNanH = CpNanH (Clostridium perfringens, UniProt P10481); type: biochemical
CpNanH, sequence (P10481 whole entry, looked up): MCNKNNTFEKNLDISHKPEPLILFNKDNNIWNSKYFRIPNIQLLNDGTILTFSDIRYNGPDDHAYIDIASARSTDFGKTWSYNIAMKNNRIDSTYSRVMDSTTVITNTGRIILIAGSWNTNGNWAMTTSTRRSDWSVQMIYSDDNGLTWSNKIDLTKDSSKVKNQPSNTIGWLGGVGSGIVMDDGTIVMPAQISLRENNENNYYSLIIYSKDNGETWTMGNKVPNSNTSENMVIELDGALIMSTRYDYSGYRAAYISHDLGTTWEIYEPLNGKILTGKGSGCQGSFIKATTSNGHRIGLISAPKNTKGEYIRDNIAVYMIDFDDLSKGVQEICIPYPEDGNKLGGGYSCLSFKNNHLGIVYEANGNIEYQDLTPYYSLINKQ

VcSialidase = VcSialidase (Vibrio cholerae serotype O1, UniProt P0C6E9); experiment: biochemical
VcSialidase, sequence (P0C6E9 25-781): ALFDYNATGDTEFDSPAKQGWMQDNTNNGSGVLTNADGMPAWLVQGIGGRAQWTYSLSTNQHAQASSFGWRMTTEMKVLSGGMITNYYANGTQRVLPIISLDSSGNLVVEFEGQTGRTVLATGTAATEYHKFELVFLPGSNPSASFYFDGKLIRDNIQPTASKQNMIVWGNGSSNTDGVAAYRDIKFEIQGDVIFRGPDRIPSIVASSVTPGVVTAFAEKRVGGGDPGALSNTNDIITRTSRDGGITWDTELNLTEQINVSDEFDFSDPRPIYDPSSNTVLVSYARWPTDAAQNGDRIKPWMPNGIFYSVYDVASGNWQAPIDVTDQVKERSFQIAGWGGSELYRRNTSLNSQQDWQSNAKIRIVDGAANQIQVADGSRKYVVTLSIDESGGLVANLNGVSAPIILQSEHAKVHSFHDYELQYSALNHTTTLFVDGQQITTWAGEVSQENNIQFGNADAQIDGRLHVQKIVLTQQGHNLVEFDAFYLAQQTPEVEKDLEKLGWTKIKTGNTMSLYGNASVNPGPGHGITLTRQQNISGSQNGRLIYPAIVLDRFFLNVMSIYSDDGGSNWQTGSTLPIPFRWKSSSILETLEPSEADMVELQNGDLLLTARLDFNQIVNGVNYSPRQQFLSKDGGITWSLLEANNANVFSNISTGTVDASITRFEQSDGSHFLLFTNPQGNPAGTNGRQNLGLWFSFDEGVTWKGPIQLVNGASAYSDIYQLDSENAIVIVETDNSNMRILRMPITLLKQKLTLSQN

[3] = target: human cytosolic sialidase hNEU2 (Homo sapiens, UniProt Q9Y3R4); experiment: Sialidase inhibition, Neu5Acα2–3GalβpNP as substrate; type: biochemical; details: 0.1 mM inhibitor
human cytosolic sialidase hNEU2, sequence (Q9Y3R4 whole entry): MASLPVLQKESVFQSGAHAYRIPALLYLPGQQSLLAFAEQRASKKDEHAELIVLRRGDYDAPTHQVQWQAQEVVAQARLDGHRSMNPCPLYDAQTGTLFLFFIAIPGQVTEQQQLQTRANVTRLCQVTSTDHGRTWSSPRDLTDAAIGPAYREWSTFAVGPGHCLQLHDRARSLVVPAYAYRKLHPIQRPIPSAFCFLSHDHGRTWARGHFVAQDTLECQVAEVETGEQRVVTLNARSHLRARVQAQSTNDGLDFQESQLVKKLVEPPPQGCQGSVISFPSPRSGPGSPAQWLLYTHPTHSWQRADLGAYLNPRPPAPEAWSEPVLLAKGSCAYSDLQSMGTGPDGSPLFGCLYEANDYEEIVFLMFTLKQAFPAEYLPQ

AuSialidase = AuSialidase (Paenarthrobacter ureafaciens, UniProt Q5W7Q2); experiment: as above; type: biochemical, Arthrobacter ureafaciens; details: 0.1 mM inhibitor
SpNanC [4] = experiment: as above; type: biochemical, Streptococcus pneumoniae; details: 0.1 mM inhibitor
SpNanB = SpNanB (Streptococcus pneumoniae serotype 4, UniProt Q54727); experiment: as above; type: biochemical; details: 0.1 mM inhibitor
SpNanB, sequence (Q54727 30-697): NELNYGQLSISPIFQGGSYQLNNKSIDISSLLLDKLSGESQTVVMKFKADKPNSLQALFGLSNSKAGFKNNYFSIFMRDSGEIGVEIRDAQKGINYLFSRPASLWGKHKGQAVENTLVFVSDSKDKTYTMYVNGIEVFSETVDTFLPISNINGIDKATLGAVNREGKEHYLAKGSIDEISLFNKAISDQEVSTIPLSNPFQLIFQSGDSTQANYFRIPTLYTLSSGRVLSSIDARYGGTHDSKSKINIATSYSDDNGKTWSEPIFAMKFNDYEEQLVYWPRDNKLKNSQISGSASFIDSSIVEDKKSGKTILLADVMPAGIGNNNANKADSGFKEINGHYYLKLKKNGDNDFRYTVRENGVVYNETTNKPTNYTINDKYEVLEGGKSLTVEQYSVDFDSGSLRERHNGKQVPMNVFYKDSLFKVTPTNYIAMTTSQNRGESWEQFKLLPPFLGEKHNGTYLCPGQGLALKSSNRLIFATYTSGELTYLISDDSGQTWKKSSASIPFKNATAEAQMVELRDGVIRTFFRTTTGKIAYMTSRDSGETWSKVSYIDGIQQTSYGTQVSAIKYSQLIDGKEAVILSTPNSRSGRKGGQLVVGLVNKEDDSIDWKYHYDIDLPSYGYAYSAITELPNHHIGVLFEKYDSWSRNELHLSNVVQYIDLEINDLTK

SpNanA = SpNanA (Streptococcus pneumoniae, UniProt P62575); experiment: biochemical; details: read-out: IC50 against SpNanA; Neu5Acα2–3GalβpNP as substrate
SpNanA, sequence (P62575 54-1035): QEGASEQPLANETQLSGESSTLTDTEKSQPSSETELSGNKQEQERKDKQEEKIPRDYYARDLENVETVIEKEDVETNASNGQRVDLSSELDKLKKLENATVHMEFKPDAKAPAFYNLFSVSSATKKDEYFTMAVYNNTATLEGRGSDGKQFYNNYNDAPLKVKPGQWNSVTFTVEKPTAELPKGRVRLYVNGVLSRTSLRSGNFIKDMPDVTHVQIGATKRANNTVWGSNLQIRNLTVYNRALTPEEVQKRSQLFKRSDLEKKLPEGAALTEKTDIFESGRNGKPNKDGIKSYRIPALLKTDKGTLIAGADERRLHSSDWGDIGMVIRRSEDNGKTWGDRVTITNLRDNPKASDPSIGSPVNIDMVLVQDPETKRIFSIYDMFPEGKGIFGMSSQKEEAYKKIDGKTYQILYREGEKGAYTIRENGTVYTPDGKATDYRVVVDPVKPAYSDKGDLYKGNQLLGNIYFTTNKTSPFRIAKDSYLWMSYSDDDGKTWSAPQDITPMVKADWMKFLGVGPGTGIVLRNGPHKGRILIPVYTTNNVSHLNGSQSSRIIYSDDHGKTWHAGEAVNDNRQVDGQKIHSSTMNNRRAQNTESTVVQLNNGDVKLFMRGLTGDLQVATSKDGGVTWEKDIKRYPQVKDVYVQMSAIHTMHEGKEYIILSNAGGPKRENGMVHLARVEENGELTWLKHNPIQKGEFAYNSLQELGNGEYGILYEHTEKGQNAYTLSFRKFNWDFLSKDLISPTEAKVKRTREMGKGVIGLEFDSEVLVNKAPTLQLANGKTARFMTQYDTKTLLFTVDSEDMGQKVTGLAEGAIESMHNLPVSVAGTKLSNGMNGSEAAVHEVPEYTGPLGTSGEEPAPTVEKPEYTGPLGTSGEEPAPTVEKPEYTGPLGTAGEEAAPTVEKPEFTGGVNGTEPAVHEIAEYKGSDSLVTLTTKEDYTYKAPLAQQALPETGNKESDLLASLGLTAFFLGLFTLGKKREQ

BiNanH2 = BiNanH2 (Bifidobacterium longum subsp. infantis, UniProt A0ACD7UU12); experiment: Sialidase inhibition, Neu5Acα2–3GalβpNP as substrate; type: biochemical; details: read-out: IC50 against BiNanH2; Neu5Acα2–3GalβpNP as substrate
viral sialidases = details: cited from earlier work
recombinant SpNanC = details: substance as substrate of previously reported recombinant SpNanC; cited from earlier work

Compound | Percentage conversion (SpNanC [1]) [%] | Km (SpNanC [2]) [µM] | kcat (SpNanC [2]) [s⁻¹] | selectivity against human NEU1 (human NEU1) | inhibitory activity against PmST1 (in words) (PmST1) | inhibitory activity against CpNanH (in words) (CpNanH) | inhibitory activity against VcSialidase (in words) (VcSialidase) | inhibitory activity against hNEU2 (in words) [3] | inhibitory activity against AuSialidase (in words) (AuSialidase) | inhibitory activity against SpNanC (in words) (SpNanC [4]) | inhibitory activity against SpNanB (in words) (SpNanB) | IC50 (SpNanA) [µM] | IC50 (BiNanH2) [µM] | selectivity against viral sialidases (viral sialidases) | Km (recombinant SpNanC) [µM] | kcat (recombinant SpNanC) [s⁻¹]
CC(=O)N[C@H]1[C@H]([C@H](O)[C@H](O)CO)OC(O[C@H]2[C@@H](O)[C@@H](CO)O[C@@H](Oc3ccc([N+](=O)[O-])cc3)[C@@H]2O)(C(=O)O)C[C@@H]1O (stereo partly shown) [Neu5Acα2–3GalβpNP] | 85.1 ± 2.4 | 2700 ± 500 | 406.8 ± 39.0 |  |  |  |  |  |  |  |  |  |  |  |  | 
CCCCC(=O)NC[C@@H](O)[C@@H](O)[C@@H]1OC(C(=O)O)=C[C@H](O)[C@H]1NC(C)=O [compound 12, Neu5Ac9NPent2en] |  |  |  | improved selectivity | not effective inhibitors | not effective inhibitors | lowered the inhibitory activity | lowered the inhibitory activity | lowered the inhibitory activity | not effective inhibitors | not effective inhibitors | 10.5 ± 0.5 | 34 ± 2 |  |  | 
CC(=O)N[C@H]1[C@H]([C@H](O)[C@H](O)CNC(=O)C2CC2)OC(C(=O)O)=C[C@@H]1O [compound 13, Neu5Ac9NCyclopro2en] |  |  |  |  | not effective inhibitors | not effective inhibitors | lowered the inhibitory activity | lowered the inhibitory activity | lowered the inhibitory activity | not effective inhibitors | not effective inhibitors | 6.8 ± 0.2 | 29 ± 2 | higher selectivity |  | 
CC(=O)N[C@H]1[C@H]([C@H](O)[C@H](O)CO)O[C@@](O[C@H]2[C@@H](O)[C@@H](CO)O[C@@H](O[C@H]3[C@H](O)[C@@H](O)C(O)O[C@@H]3CO)[C@@H]2O)(C(=O)O)C[C@@H]1O (stereo partly drawn) [α2–3-sialyllactose] |  |  |  |  |  |  |  |  |  |  |  |  |  |  | 1080 ± 350 | 0.313 ± 0.052
